Experimental data from patent US5670530A, “Anti-cancer composition comprising rhodacyanine compound and cyclodextrin” (Fuji Photo Film Co., Ltd., priority 1995, dated 1997).
Blank lines part the entries; values can stand above or below the compound they belong to.

Legend:
[1] = Solubility of Compounds 2, 4 and 5 in aqueous solution containing various cyclodextrin compounds (Example 4); type: physicochemical; settings: for Solubility in water with cyclodextrin compounds: β-CD, HP-β-CD, γ-CD
Protocol: (§1) Solutions of HP-β-CD in demineralized water having concentrations varying from 0 w/v % to 45 w/v % were prepared as described in EXAMPLE 1. […] The results obtained are shown graphically in FIGS. 1 and 2.
Aqueous solutions of β-CD, HP-β-CD and γ-CD were prepared and solubility of Compounds 2, 4 and 5 in each of the aqueous solutions having the concentration varing as shown in TABLE 2 was determined as described in EXAMPLE 2. For the purpose of comparison, solubility of Compounds 2, 4 and 5 in water was also determined.

[2] = Solubility of rhodacyanine compounds in human serum at 37° C.
[3] = system: human colon carcinoma cells (CX-1); experiment: Tumor inhibition in nude mice implanted with human colon carcinoma cells CX-1 (Example 8); type: in vivo, human cells in nude mouse (Swiss nu/nu); settings: for Tumor Inhibition: day 1, 2, 4, 6, 7, 8, 9
Protocol: 2,500,000 human colon carcinoma cells (CX-1) were injected subcutaneously into each nude mouse (Swiss nu/nu) obtained from Taconic Farm and the mice were randomly allocated into a control group (five mice) and treatment groups (five mice per group).
The anti-cancer compositions containing HP-β-CD were prepared using the following method. HP-β-CD (45 g) was mixed with 100 ml of sterilized, double distilled water and stirred for four hours. Each of the compounds to be tested (20 mg) was mixed with 10 ml of HP-β-CD solution and sonicated for 60 minutes in the dark. This solution was then diluted in 5% glucose to yield a final compound concentration of 0.5 mg/ml, and further sonicated for 60 minutes in the dark to assure that the compound was completely dissolved. The anti-cancer compositions not containing HP-β-CD were also prepared using the same method except that 5% glucose solution was used instead of the HP-β-CD solution.
The control group received an equivalent volume of 5% glucose solution.
When the growth of tumors in the control group reached the exponential phase and the size of the tumor was palpable (usually 20 to 30 days after tumor implantation), the experiments were terminated. Tumors in each mouse were excised and weighed using an analytical balance. Total tumor weight in each group from five mice was calculated. Per cent tumor inhibition between the treated group and the control group was then calculated for each group.

[4] = Solubility of Compound 1 in rat serum with HP-β-CD (Example 2); type: physicochemical; settings: HP-β-CD 0 to 45 w/v %, 30 minutes, 25° C.
Protocol: as §1

[5] = Solubility of Compound 1 in aqueous solutions of β-CD, HP-β-CD and γ-CD (Example 3); type: physicochemical
[6] = Precipitation of Compound 1 in rat blood with HP-β-CD (Example 5); type: physicochemical; settings: HP-β-CD concentration increases
[7] = Solubility of Compound 1 in fetal calf serum with HP-β-CD (Example 2); type: physicochemical; settings: HP-β-CD 0 to 45 w/v %, 30 minutes, 25° C.
Protocol: as §1

[8] = Solubility of Compound 1 in aqueous solution containing various solubilizers (Example 1); type: physicochemical; settings: for solubility at 24 h: 25° C.
Protocol: Solubilizers, β-CD, polyethylene glycol 400 and Pluronic F60, were added to demineralized water respectively to prepare solutions having concentrations shown in TABLE 1. […] The test tubes were fixed in thermostatic bath controlled at 25° C. and allowed to stand for 24 hours.

[9] = system: human melanoma LOX; experiment: Survival of nude mice implanted with human melanoma LOX (Example 9); type: in vivo, human cells in nude mice

Solubility in water [1]: ~ 0 mM/dl
Solubility in aqueous solution of CD ([1]; γ-CD 1.0 mM/dl): 0.02 mM/dl
Structure (SMILES): CCn1c(=Cc2sc3c4ccccc4ccc3[n+]2CC)sc(=C2Sc3ccc4ccccc4c3N2C)c1=O [Compound 5]
Solubility in water with cyclodextrin compounds [1]: improved by all of the cyclodextrin compounds used

solubility [2]: 300 µg/mL
Structure (SMILES): CN1C(=c2sc(=Cc3oc4ccccc4[n+]3C)n(C)c2=O)Sc2ccccc21

Solubility in water with γ-CD (FIG. 3) ([5]; γ-CD): γ-CD greatly improves the solubility
precipitation of Compound 1 in blood [6]: effectively inhibited
solubility at 24 h ([8]; water only): 1860 µg/mL
solubility at 24 h ([8]; water, peg 400 50%, organic solvent or mixture, Polyethylene glycol 400, 50 w/v %): 870 µg/mL
solubility at 24 h ([8]; water, Pluronic F60 0.02 w/v %): 3230 µg/mL
solubility at 24 h ([8]; water, Pluronic F60 0.2 w/v %): 3130 µg/mL
solubility at 24 h ([8]; water, β-CD 1.5 w/v %): 8170 µg/mL
increase of solubility in water by β-CD ([8]; β-CD vs compound itself in water): 4.4 times
Structure (SMILES): CCn1c(=Cc2sc3c4ccccc4ccc3[n+]2CC)sc(=CC=C2Sc3ccc4ccccc4c3N2C)c1=O [Compound 1]
Tumor Inhibition ([3]; 2 mg/kg i.p., HP-β-CD added): 48.8%
Tumor Inhibition ([3]; 2 mg/kg i.p., HP-β-CD non-added): 29.1%
Tumor Inhibition ([3]; 4 mg/kg i.p., HP-β-CD added): 30.2%
Tumor Inhibition ([3]; 4 mg/kg i.p., HP-β-CD non-added): 20.9%
tumor inhibition, with vs without HP-β-CD ([3]; solution containing HP-β-CD vs no HP-β-CD): higher tumor inhibition than that containing no HP-β-CD
Compound 1 dissolved in serum (FIGS. 1 and 2) [4]: much dissolved in the serums, depending on the increase in HP-β-CD concentration
Solubility in water with cyclodextrins (FIG. 3) ([5]; β-CD, HP-β-CD and γ-CD): all cyclodextrin compounds used improve solubility of Compound 1 in water
Compound 1 dissolved in serum (FIGS. 1 and 2) [7]: much dissolved in the serums, depending on the increase in HP-β-CD concentration

solubility [2]: > 1000 µg/mL
Structure (SMILES): CCn1c(=Cc2scc(C)[n+]2CC)sc(=C2Sc3ccccc3N2C)c1=O

Structure (SMILES): CCn1c(=Cc2oc3ccccc3[n+]2CC)sc(=C2Sc3ccccc3N2C)c1=O [Compound 7]
T/C ([9]; 10 mg/kg i.p., HP-β-CD added, day 1, 4, 8, 12, 16, 21, 25): 200%
T/C ([9]; 10 mg/kg i.p., HP-β-CD non-added, day 1, 4, 8, 12, 16, 21, 25): 175%

Structure (SMILES): CCN1C(=CC=c2sc(=Cc3cc[n+](CC)c4ccccc34)n(CC)c2=O)C=Cc2ccccc21 [Compound 8]
T/C ([9]; 20 mg/kg i.p., HP-β-CD added, day 1, 2, 3, 4, 8, 9): 227%
T/C ([9]; 20 mg/kg i.p., HP-β-CD non-added, day 1, 2, 3, 4, 8, 9): 183%

Solubility in water [1]: 0.03 mM/dl
Solubility in aqueous solution of CD ([1]; β-CD 0.80 mM/dl): 0.55 mM/dl
Structure (SMILES): CCN1C(=CC=c2sc(=CC3=[N+](CC)CCS3)n(CC)c2=O)C=Cc2ccccc21 [Compound 2]
Solubility in water with cyclodextrin compounds [1]: improved by all of the cyclodextrin compounds used

solubility [2]: > 1000 µg/mL
Structure (SMILES): CCn1c(=CC2=[N+](CC)CCS2)sc(=C2Sc3ccccc3N2C)c1=O

solubility [2]: < 100 µg/mL
Structure (SMILES): CCn1c(=Cc2oc3c4ccccc4ccc3[n+]2CC)sc(=C2Sc3ccccc3N2C)c1=O

solubility [2]: < 1000 µg/mL
Structure (SMILES): CCn1c(=Cc2sc3ccccc3[n+]2CC)sc(=CC=C2SC=C(C)N2C)c1=O

Solubility in aqueous solution of CD ([1]; HP-β-CD 4.2 mM/dl): 0.03 mM/dl
Solubility in water [1]: 0.001 mM/dl
Structure (SMILES): CCn1c(=C2CCC[n+]3c2sc2ccccc23)sc(=C2Sc3ccccc3N2C)c1=O [Compound 4]
Solubility in water with cyclodextrin compounds [1]: improved by all of the cyclodextrin compounds used

solubility [2]: < 100 µg/mL
Structure (SMILES): CCN1C(=CC=c2sc(=Cc3cc[n+](CC)c4ccccc34)n(CC)c2=O)C=Cc2ccccc21 [drawing 20]

solubility [2]: > 1000 µg/mL
Structure (SMILES): CCn1c(=CC2=[N+](CC)CCS2)sc(=C2SC3=C(CCCC3)N2C)c1=O

solubility [2]: < 100 µg/mL
Structure (SMILES): CCn1c(=Cc2sc3c4ccccc4ccc3[n+]2CC)sc(=CC=C2Sc3ccc4ccccc4c3N2C)c1=O [drawing 21]

solubility [2]: < 100 µg/mL
Structure (SMILES): CCN1C(=CC=c2sc(=CC3=[N+](CC)CCS3)n(CC)c2=O)C=Cc2ccccc21 [drawing 16]

solubility [2]: < 100 µg/mL
Structure (SMILES): CCn1c(=Cc2oc3ccccc3[n+]2CC)sc(=C2Sc3ccccc3N2C)c1=O [drawing 17]
